Data reported in patent US7964643B2, “Aryl alkyl sulfonamides as therapeutic agents for the treatment of bone conditions” (The University Court of the University of Aberdeen, priority 2004, dated 2011).

tested on: J774 macrophage cell line; assay: Alamar Blue macrophage J774 viability assay; assay type: cell-based; settings: Mus musculus, J774, 72 h, 72 hours culture with compound, Alamar Blue, read-out: IC50 (J774)
Protocol: Initial screening of candidate compounds was performed using viability assays, on cultures of the macrophage cell line J774, which have been used before as a model system for osteoclast survival (see, e.g., Luckman et al., 1998). The assays are based on the survival of the J774 macrophage cell line; macrophages are closely related to osteoclasts, and contain similar high levels of esterase activity.
J774 cells were plated at 10^4 cells per well in 150 μL αMEM (α Modified Eagle Medium) in 96-well plates and grown overnight. The next day, compounds were added to the cultures, and culture was continued for another 72 hours. At the end of the culture period cell survival was determined using an Alamar Blue assay as previously described (see, e.g., Nociari et al., 1998).
Alamar Blue is an oxidation-reduction sensitive indicator. The dye itself is in the oxidised state, which is blue and non-fluorescent. The dye can accept electrons from reducing species, such as NADPH and FADH, to form a reduced dye species, which is red and fluorescent. Thus the transformation from oxidised form to reduced form can be measured by fluorimetric or colourimetric means. For fluorescence measurements, 530-560 nm excitation and 590 nm emission wavelengths are typically used. For colourimetric measurements, absorbance is measured at 570 nm (reduced form) and 600 nm (oxidised form) and a simple calculation performed to determine the relative quantities of the two species.
A high ratio of the reducing species, NADPH and FADH, to the corresponding oxidised species, NADP and FAD, is an indicator that cells are proliferating and viable. A low ratio indicates cells that are quiescent or non-viable.
Briefly, Alamar Blue (Biosource International) was added undiluted to the each well (1:10 v/v, 15 μL). The plate was incubated at 37° C. for 3-4 hours and the fluorescence was measured at 570 nm, with a 25 nm bandwidth. A high reading indicated cells with normal viability, and a low reading indicates cells that have been damaged and are no longer proliferating normally. The controls gave a high fluorescence reading, indicating a high number of live, healthy cells. A potent test compound gave a low fluorescence reading. The average results for each test compound (n=5) were expressed as a percent (%) of the average control value.
Addition of Compounds. All of the compounds studied were made up as 100 mM solutions in DMSO. These stock solutions were then diluted 100 or 1000× in culture medium (αMEM). From these 1 mM or 100 μM solutions, convenient quantities (3-15 μL) were added directly to the wells so as to give the desired final compound concentration.

Row | SMILES | IC50
1 | Cc1cccc(-c2ccc(S(=O)(=O)NCCCCO)cc2)c1 [ABD-308, 3′-Methylbiphenyl-4-sulfonic acid-(4-hydroxybutyl)-amide] | 28 ± 3 µM
2 | CC(=O)c1ccc(-c2ccc(S(=O)(=O)NCCCCCO)cc2)cc1 [ABD-261, 4′-Acetylbiphenyl-4-sulfonic acid-(5-hydroxypentyl)-amide] | 11 ± 2 µM
3 | O=S(=O)(NCCCCO)c1ccc(-c2ccccc2)cc1 [ABD-155, Biphenyl-4-sulfonic acid-(4-hydroxybutyl)-amide] | 18 ± 3 µM
4 | Cc1cc(S(=O)(=O)NCCCCO)ccc1-c1ccc(F)cc1 [ABD-320, 4′-Fluoro-2-methylbiphenyl-4-sulfonic acid-(4-hydroxybutyl)-amide] | 2.5 ± 0.2 µM
5 | O=S(=O)(NCCCCO)c1ccc(-c2ccc(C(F)(F)F)cc2)cc1 [ABD-246, 4′-Trifluoromethylbiphenyl-4-sulfonic acid-(4-hydroxybutyl)-amide] | 5 ± 1 µM
6 | O=S(=O)(NCCCCO)c1ccc(-c2ccc(OC(F)(F)F)cc2)cc1 [ABD-306, 4′-Trifluoromethoxybiphenyl-4-sulfonic acid-(4-hydroxybutyl)-amide] | 8 ± 1 µM
7 | O=S(=O)(NCCCCO)c1ccc(-c2ccc(C(F)(F)F)cc2)c(F)c1 [ABD-294, 2-Fluoro-4′-trifluoromethylbiphenyl-4-sulfonic acid-(4-hydroxybutyl)-amide] | 5 ± 1 µM
8 | O=C(O)c1ccc(-c2ccc(S(=O)(=O)NCCCCCO)cc2)cc1 [ABD-271, 4′-Carboxybiphenyl-4-sulfonic acid-(5-hydroxypentyl)-amide] | 33 ± 3 µM
9 | O=S(=O)(NCCCCCO)c1ccc(-c2ccccc2)cc1 [ABD-180, Biphenyl-4-sulfonic acid-(5-hydroxypentyl)-amide] | 20 ± 3 µM
10 | O=S(=O)(NCCCCO)c1ccc(-c2ccc(F)cc2)cc1 [ABD-200, 4′-Fluorobiphenyl-4-sulfonic acid-(4-hydroxybutyl)-amide] | 8 ± 2.5 µM
11 | O=S(=O)(NCCCCO)c1ccc(-c2ccc(F)cc2F)cc1Cl [ABD-325, 3-Chloro-2′,4′-difluoro-biphenyl-4-sulfonic acid-(4-hydroxybutyl)-amide] | 2.5 ± 0.5 µM
12 | Nc1ccccc1-c1ccc(S(=O)(=O)NCCCCO)cc1 [ABD-263, 2′-Aminobiphenyl-4-sulfonic acid-(4-hydroxybutyl)-amide] | 24 ± 3 µM
13 | O=[N+]([O-])c1cccc(-c2ccc(S(=O)(=O)NCCCCO)cc2)c1 [ABD-226, 3′-Nitrobiphenyl-4-sulfonic acid-(4-hydroxybutyl)-amide] | 33 ± 3 µM
14 | Cc1ccc(-c2ccc(S(=O)(=O)NCCCCCO)cc2)cc1 [ABD-260, 4′-Methylbiphenyl-4-sulfonic acid-(5-hydroxypentyl)-amide] | 12 ± 2 µM
15 | CN(C)c1ccc(-c2ccc(S(=O)(=O)NCCCCCO)cc2)cc1 [ABD-276, 4′-Dimethylaminobiphenyl-4-sulfonic acid-(5-hydroxypentyl)-amide] | 32 ± 3 µM
16 | O=S(=O)(NCCCCO)c1ccc(-c2ccc(Br)cc2F)cc1 [ABD-265, 4′-Bromo-2′-fluorobiphenyl-4-sulfonic acid-(4-hydroxybutyl)-amide] | 3 ± 1 µM

Row | SMILES | IC50
17 | O=S(=O)(NCCCCO)c1ccc(-c2ccc(Br)cc2)cc1 [ABD-201, 4′-Bromobiphenyl-4-sulfonic acid-(4-hydroxybutyl)-amide] | 9 ± 2 µM
18 | N#Cc1ccc(-c2ccc(S(=O)(=O)NCCCCCO)cc2)cc1 [ABD-262, 4′-Cyanobiphenyl-4-sulfonic acid-(5-hydroxypentyl)-amide] | 12 ± 2 µM
19 | O=S(=O)(NCCCCO)c1ccc(-c2ccccc2I)cc1 [ABD-275, 2′-Iodobiphenyl-4-sulfonic acid-(4-hydroxybutyl)-amide] | 5.5 ± 1.5 µM
20 | O=S(=O)(NCCCCCO)c1ccc(-c2ccccc2C(F)(F)F)cc1 [ABD-284, 2′-Trifluoromethylbiphenyl-4-sulfonic acid-(5-hydroxypentyl)-amide] | 6 ± 1.5 µM
21 | O=S(=O)(NCCCCCO)c1ccc(-c2ccc(-c3ccccc3)cc2)cc1 [ABD-279, p-Terphenyl-4-sulfonic acid-(5-hydroxypentyl)-amide] | 33 ± 5 µM
22 | O=[N+]([O-])c1ccccc1-c1ccc(S(=O)(=O)NCCCCO)c(C(F)(F)F)c1 [ABD-365, 2′-Nitro-3-trifluoromethylbiphenyl-4-sulfonic acid-(4-hydroxybutyl)-amide] | 0.3 ± 0.1 µM
23 | O=S(=O)(NCCCCCO)c1ccc(-c2ccc(O)cc2)cc1 [ABD-277, 4′-Hydroxybiphenyl-4-sulfonic acid-(5-hydroxypentyl)-amide] | 21 ± 3 µM
24 | O=S(=O)(NCCCCO)c1ccc(-c2ccc(C(F)(F)F)cc2)cc1F [ABD-302, 3-Fluoro-4′-trifluoromethylbiphenyl-4-sulfonic acid-(4-hydroxybutyl)-amide] | 5.5 ± 1.5 µM
25 | CSc1ccc(-c2ccc(S(=O)(=O)NCCCCO)cc2)cc1 [ABD-258, 4′-Methylthiobiphenyl-4-sulfonic acid-(4-hydroxybutyl)-amide] | 35 ± 6 µM
26 | COc1ccccc1-c1ccc(S(=O)(=O)NCCCCCO)cc1 [ABD-267, 2′-Methoxybiphenyl-4-sulfonic acid-(5-hydroxypentyl)-amide] | 31 ± 4 µM
27 | O=S(=O)(NCCCCCO)c1ccc(-c2ccc(F)cc2F)cc1 [ABD-248, 2′,4′-Difluorobiphenyl-4-sulfonic acid-(5-hydroxypentyl)-amide] | 4.5 ± 1 µM
28 | O=S(=O)(NCCCCO)c1ccc(-c2ccc(F)cc2F)cc1OC(F)(F)F [ABD-360, 2′,4′-Difluoro-3-trifluoromethoxybiphenyl-4-sulfonic acid-(4-hydroxybutyl)-amide] | 1 ± 0.3 µM
29 | O=[N+]([O-])c1ccccc1-c1ccc(S(=O)(=O)NCCCCO)cc1 [ABD-227, 2′-Nitrobiphenyl-4-sulfonic acid-(4-hydroxybutyl)-amide] | 2 ± 0.5 µM
30 | O=S(=O)(NCCCCO)c1ccc(-c2ccccc2)cc1C(F)(F)F [ABD-310, 3-Trifluoromethylbiphenyl-4-sulfonic acid-(4-hydroxybutyl)-amide] | 4.5 ± 1 µM
31 | O=S(=O)(NCCCCCO)c1ccc(-c2ccc(F)c(F)c2)cc1 [ABD-257, 3′,4′-Difluorobiphenyl-4-sulfonic acid-(5-hydroxypentyl)-amide] | 16 ± 3 µM
32 | CCOc1ccc(-c2ccc(S(=O)(=O)NCCCCCO)cc2)cc1 [ABD-297, 4′-Ethoxybiphenyl-4-sulfonic acid-(5-hydroxypentyl)-amide] | 35 ± 5 µM

same assay, conditions: Mus musculus, J774, 72 h, after 72 hours exposure, FIG. 1, read-out: IC50 against J774 macrophages (FIG. 1)

Row | SMILES | IC50
33 | O=S(=O)(NCCCCO)c1ccc(-c2ccccc2)cc1 [ABD-155, Biphenyl-4-sulfonic acid-(4-hydroxybutyl)-amide] | < 20 µM

tested on: osteoblasts; assay: Alamar Blue mouse osteoblast assay; assay type: cell-based; settings: osteoblast survival, after 72 hours exposure, FIG. 1, read-out: IC50 against osteoblasts (FIG. 1)
Protocol: Osteoblasts were isolated as described above and plated at 10^4 cells/well in 96-well plates in 100 μL of […]MEM supplemented with 10% FCS and antibiotics. Test compounds were added after 24 hours and left for 72 hours. Cell viability was assessed using the Alamar Blue assay as described for J774 macrophages. Alamar Blue (Biosource International) was added undiluted to each well (1:10 v/v, 10 μL). The plate was incubated at 37° C. for 3 to 4 hours and the fluorescence was measured at 570 nm, with a 25 nm bandwidth.
Osteoblast Isolation. Briefly, osteoblasts were isolated from the calvarial bones of 2-day-old mice by sequential collagenase digestion (type I collagenase, Sigma) and cultured in αMEM supplemented with 10% FCS (foetal calf serum) and penicillin and streptomycin at 37° C. in 5% CO2.
More specifically, osteoblasts were obtained from a collagenase digestion of the calvaria (skull bones) of 2-3 day old neo-natal C57/bl6 mice. At this stage in their development these are soft and easily removed. The calvaria from 5-6 mice were carefully dissected and washed in HBSS (Hank's balanced saline solution). The calvaria were placed in a 15 mL tube and shaken at 37° C. in 4 mL collagenase (10 mg/ml) for 10 minutes. This removes the excess unwanted tissue. The liquid was disposed of and a further 4 mL collagenase (10 mg/ml) added to the tube. […]

Row | SMILES | IC50
34 | O=S(=O)(NCCCCO)c1ccc(-c2ccccc2)cc1 [ABD-155, Biphenyl-4-sulfonic acid-(4-hydroxybutyl)-amide] | > 100 µM
